How the values were obtained:
[1] = test system: pY705-STAT3 in Peripheral Blood Mononuclear Cells (PBMC); experiment: MSD-pSTAT-PBMC Assay (pSTAT3, IL-6 stimulated); type: cell-based, Human; conditions: compound 3 hrs, then 10 ng/mL IL-6 for 10 min
Source text: Cryopreserved Peripheral Blood Mononuclear Cells (PBMC) are from AllCells. Recombinant Human IL-4 and IL-6 are from Peprotech. Mouse monoclonal anti-STAT3 antibody, rabbit monoclonal anti-pY705-STAT3 antibody, rabbit monoclonal Anti-pY641-STAT6 antibody, and lysis buffer are from Cell Signaling Technology (CST). Mouse monoclonal anti-STAT6 antibody is from BioLegend. Assay plates, blocker, and anti-rabbit secondary antibody are from Meso Scale Discovery (MSD).
Cryopreserved PBMCs were thawed out and allowed to recover overnight in IMDM+10% heat-inactivated FBS prior to plating 50,000 (STAT3) or 25,000 (STAT6) cells per well in 96-well U-bottom tissue culture plates. Cells were treated with compound for 3 hrs, then stimulated with 10 ng/mL IL-6 (STAT3) or 1 ng/mL IL-4 (STAT6) for 10 min. Cells were then spun down and washed with ice-cold PBS prior to lysing the cell pellet with 1× lysis buffer (CST) with 1×HALT protease and phosphatase inhibitor cocktail (Thermo). Lysates were transferred to and incubated overnight at 4° C. with shaking in QuickPlex 96-well high bind assay plates (MSD) pre-coated overnight with 30 μL per well of 0.6 μg/mL mouse monoclonal anti-STAT3 antibody (STAT3) or 2 μg/mL mouse monoclonal anti-STAT6 antibody (STAT6) in 1×PBS, and pre-blocked for 1 hour with 3% Blocker-A (MSD). Captured protein in the assay plates were then washed and probed with 25 μL per well of 0.25 μg/ml rabbit monoclonal anti-pY705-STAT3 antibody (STAT3) or […] rabbit monoclonal Anti-pY641-STAT6 antibody (STAT6) in 1% Blocker-A for 1 hour at room temperature with shaking, then washed and probed with 25 ul per well of 1 ug/ml Sulfo-TAG Labeled Goat Anti-Rabbit Antibody (MSD) in 1% Blocker-A for 1 hour at room temperature with shaking. Assay plates were then washed and 150 μL of 1× Read Buffer-T (MSD) was added to each well prior to reading on an SQ120 MSD Plate Reader. Assay signal from each sample was subtracted by the signal from unstimulated control wells and normalized to DMSO control wells. IC50 values were calculated using Graph Pad Prism Dose-Response Nonlinear Regression with variable slope. For both pSTAT3 and pSTAT6 A=≤100 nM; B=>100-1000 nM; C=>1000-3000 nM; and D=>3 μM.

[2] = test system: pY641-STAT6 in Peripheral Blood Mononuclear Cells (PBMC); experiment: MSD-pSTAT-PBMC Assay (pSTAT6, IL-4 stimulated); type: cell-based, Human; conditions: compound 3 hrs, then 1 ng/mL IL-4 for 10 min
How it was run: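 Phospho-STAT readout used MSD electrochemiluminescence with total STAT3 or STAT6 capture in lysates of cryopreserved human PBMCs. Cells had 3 h compound exposure before a 10 min cytokine pulse: IL-6 10 ng/mL for pSTAT3, IL-4 1 ng/mL for pSTAT6. IC50 came from background-subtracted, DMSO-normalised signal, with categories A≤100 nM up to D>3 μM.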

Compound	IC50 ([1]; Homo sapiens)	IC50 ([2]; Homo sapiens)	IC50 [1]	IC50 [2]
CCCC(=O)SCCOP(=O)(OCOC(=O)OC(C)C)C(F)(F)c1ccc2ccc(C(=O)N[C@H]3CN(C(C)=O)CC[C@H]4CC[C@@H](C(=O)N5C[C@H](c6cc[nH]c(=O)c6)[C@@H](C#N)C5)N4C3=O)cc2c1 (single isomer, unassigned) [Compound 303, S-(2-((((7-(((5S,8S, 10aR)-3-acetyl-8-((3R,4S or 3S,4R)-3-cyano-4-(2-oxo-1,2-dihydro-pyridin-4-yl)pyrrolidine-1-carbonyl)-6-oxodecahydro-pyrrolo[1,2-a][1,5]diazocin-5-yl)carbamoyl)naphthalen-2-yl)difluoro-methyl)(((iso-propoxy-carbonyl)oxy)methoxy)phosphoryl)oxy)ethyl) butanethioate]	1 to 3 µM	0.1 to 1 µM		
CCCC(=O)SCCOP(=O)(OCCSC(=O)CCC)C(F)(F)c1ccc2ccc(C(=O)N[C@H]3CN(C(C)=O)CC[C@H]4CC[C@@H](C(=O)N5C[C@H](c6cc[nH]c(=O)c6)[C@@H](C#N)C5)N4C3=O)cc2c1 (single isomer, unassigned) [Compound 304, S,S′-(((((7-(((5S,8S, 10aR)-3-acetyl-8-((3R,4S or 3S,4R)-3-cyano-4-(2-oxo-1,2-dihydro-pyridin-4-yl)pyrrolidine-1-carbonyl)-6-oxodecahydro-pyrrolo[1,2-a][1,5]diazocin-5-yl)carbamoyl)naphthalen-2-yl)difluoro-methyl)phos-phoryl)bis(oxy))bis(ethane-2,1-diyl))di-butanethioate]	> 3 µM	0.1 to 1 µM		
CC(=O)N1CC[C@H]2CC[C@@H](C(=O)N3C[C@@H](C#N)[C@H](c4cc[nH]c(=O)c4)C3)N2C(=O)[C@@H](NC(=O)c2ccc3ccc(C(F)(F)P(=O)(OCCSC(=O)CC(C)C)OCCSC(=O)CC(C)C)cc3c2)C1 (single isomer, unassigned) [Compound 306, S,S′-(((((7-(((5S,8S, 10aR)-3-acetyl-8-((3S,4R or 3r,4S)-3-cyano-4-(2-oxo-1,2-dihydro-pyridin-4-yl)pyrrolidine-1-carbonyl)-6-oxodecahydro-pyrrolo[1,2-a][1,5]diazocin-5-yl)carbamoyl)naphthalen-2-yl)difluoro-methyl)phos-phoryl)bis(oxy))bis(ethane-2,1-diyl)) bis(3-methylbutane-thioate)]	> 3 µM	1 to 3 µM		
CCN1CC[C@H]2CC[C@@H](C(=O)N3C[C@@H](C#N)[C@H](c4ccccc4)C3)N2C(=O)[C@@H](NC(=O)c2cc3cc(C(F)(F)P(=O)(OCCSC(=O)C(C)(C)C)OCCSC(=O)C(C)(C)C)ccc3s2)C1 (single isomer, unassigned) [Compound 330, S,S′-(((((2-(((5S,8S,10aR)-8-((3S,4R or 3R,4S)-3-cyano-4-phenylpyrrolidine-1-carbonyl)-3-ethyl-6-oxodecahydropyrrolo[1,2-a][1,5]diazocin-5-yl)carbamoyl)benzo[b]thiophen-5-yl)difluoromethyl)phosphoryl)bis(oxy))bis(ethane-2,1-diyl)) bis(2,2-dimethylpropanethioate)]	1 to 3 µM	1 to 3 µM		
CCN1CC[C@H]2CC[C@@H](C(=O)N3C[C@@H](C#N)[C@H](c4ccccc4)C3)N2C(=O)[C@@H](NC(=O)c2cc3cc([C@H](F)P(=O)(OCCSC(=O)CC(C)C)OCCSC(=O)CC(C)C)ccc3s2)C1 (single isomer, unassigned) [Compound 339, S,S′-(((((R or S)-(2-(((5S,8S,10aR)-8-((3S,4R or 3R,4S)-3-cyano-4-phenylpyrrolidine-1-carbonyl)-3-ethyl-6-oxodecahydropyrrolo[1,2-a][1,5]diazocin-5-yl)carbamoyl)benzo[b]thiophen-5-yl)fluoromethyl)phosphoryl)bis(oxy))bis(ethane-2,1-diyl))bis(3-methylbutane thioate)]	1 to 3 µM	0.1 to 1 µM		
CC(C)(C)C(=O)SCCOP(=O)(OCCSC(=O)C(C)(C)C)C(F)(F)c1ccc2ccc(C(=O)N[C@H]3CN(CC(F)F)CC[C@H]4CC[C@@H](C(=O)N5C[C@@H](C#N)[C@H](c6ccccc6)C5)N4C3=O)cc2c1 (single isomer, unassigned) [Compound 342, S,S′-(((((7-(((5S,8S,10aR)-8-((3S,4R or 3R,4S)-3-cyano-4-phenylpyrrolidine-1-carbonyl)-3-(2,2-difluoroethyl)-6-oxodecahydropyrrolo[1,2-a][1,5]diazocin-5-yl)carbamoyl)naphthalen-2-yl)difluoromethyl)phosphoryl)bis(oxy))bis (ethane-2,1-diyl))bis(2,2-dimethylprop anethioate)]	> 3 µM	0.1 to 1 µM		
CCN1CC[C@H]2CC[C@@H](C(=O)N3C[C@@H](C#N)[C@H](c4ccccc4)C3)N2C(=O)[C@@H](NC(=O)c2ccc3ccc(C(F)(F)P(=O)(OCCSC(=O)C(C)(C)C)OCCSC(=O)C(C)(C)C)cc3c2)C1 (single isomer, unassigned) [Compound 343, S,S′-(((((7-(((5S,8S,10aR)-8-((3S,4R or 3R,4S)-3-cyano-4-phenylpyrrolidine-1-carbonyl)-3-ethyl-6-oxodecahydropyrrolo[1,2-a][1,5]diazocin-5-yl)carbamoyl)naphthalen-2-yl)difluoromethyl)phosphoryl)bis(oxy))bis(ethane-2,1-diyl))bis(2,2-dimethylpropanethioate)]	1 to 3 µM	0.1 to 1 µM		
CC(C)(C)C(=O)OCOP(=O)(OCOC(=O)C(C)(C)C)C(F)(F)c1ccc2ccc(C(=O)N[C@H]3CN(CC(F)F)CC[C@H]4CC[C@@H](C(=O)N5C[C@@H](C#N)[C@H](c6ccccc6)C5)N4C3=O)cc2c1 (single isomer, unassigned) [Compound 346]	0.1 to 1 µM	≤ 0.1 µM		
CC(C)(C)C(=O)OCOP(=O)(OCOC(=O)C(C)(C)C)C(F)(F)c1ccc2sc(C(=O)N[C@H]3CN(CC(F)F)CC[C@H]4CC[C@@H](C(=O)N5C[C@@H](C#N)[C@H](c6ccccc6)C5)N4C3=O)cc2c1 (single isomer, unassigned) [Compound 348, ((((2-(((5S,8S,10aR)-8-((3S,4R or 3R,4S)-3-cyano-4-phenylpyrrolidine-1-carbonyl)-3-(2,2-difluoroethyl)-6-oxodecahydropyrrolo[1,2-a][1,5]diazocin-5-yl)carbamoyl)benzo[b]thiophen-5-yl)difluoromethyl)phosphoryl)bis (oxy)) bis(methylene) bis(2,2-dimethylpropanoate)]	≤ 0.1 µM	≤ 0.1 µM		
CC(=O)N1CCC2CCC(C(=O)N3CC(c4ccccc4)CC34CC4)N2C(=O)C(NC(=O)c2ccc3ccc(C(F)(F)P(=O)(OCCSC(=O)CC(C)C)OCCSC(=O)CC(C)C)cc3c2)C1 [Compound 1, S,S′-(((((7-(((5S,8S,10aR)-3-acetyl-6-oxo-8-(6-phenyl-4-azaspiro[2.4]heptane-4-carbonyl)decahydropyrrolo[1,2-a][1,5]diazocin-5-yl)carbamoyl)naphthalen-2-yl)difluoromethyl)phosphoryl)bis(oxy))bis(ethane-2,1-diyl)) bis(3-methylbutanethioate)]			> 3 µM	0.1 to 1 µM

Reference: US20250179103A1, “6-OXODECAHYDROPYRROLO[1,2-A][1,5]DIAZOCINE AND 6-OXODECAHYDRO-4H-PYRROLO[2,1-D][1,5]THIAZOCINE DERIVATIVES AS STAT3 AND STAT6 MODULATORS FOR THE TREATMENT OF CANCER AND INFLAMMATORY CONDITIONS” (Recludix Pharma, Inc., priority 2022, published 2025)
